Key:
[1] = system: isolated leukemia cells from patients with CLL; assay: qPCR analysis of gene expression in isolated leukemia cells; type: cell-based, human; details: 6 hours
Procedure: Isolated leukemia cells from patients with CLL were incubated with EC-7072 (200 nM) or DMSO for 6 hours. Total RNA was extracted using RNeasy Mini Kit (Qiagen). 2 µg total RNA were used for cDNA synthesis using High-Capacity cDNA Reverse Transcription Kit (Applied Biosystems). Quantitative RT-PCR was performed using SYBR Green PCR Master Mix (Applied Biosystems) in a 7300 Real-Time PCR System and each sample was analyzed in triplicate. Table 1. Primers used in qPCR
Expression of BCR-related genes was analyzed by qPCR in isolated CLL leukemia cells (n = 6) exposed to 200 nM EC-7072 for 6 hours (Figure 6A).
Expression of relevant genes that regulate apoptosis in CLL was analyzed by qPCR in isolated leukemia cells from patients with CLL (n = 6) exposed to 200 nM EC-7072 for 6 hours, to obtain the mean relative expression to the control (DMSO) control condition (Figure 6D).
The dysregulation of BCL2 expression in primary CLL by EC-7072 was evaluated by: • (i) incubating isolated CLL cells (n = 6) from patients with CLL following treatment with EC-7072 (200 nM) for 6 hours and extracting total RNA. Relative expression of BLC2 was determined by qPCR to obtain the mean relative expression to the control (DMSO) condition (Figure 6F); • (ii) incubating isolated CLL cells (n = 6) following treatment with 200 nM EC-7072 for 12 and 18 hours. BCL2 levels were evaluated by intracellular flow cytometry (Figure 6G); • (iii) incubating isolated T cells (n = 3) from patients with CLL following treatment with EC-7072 (200 nM) for 6 hours and extracting total RNA. Relative expression of BLC2 was determined by qPCR to obtain the mean relative expression to the control (DMSO) condition (Figure 6H); • (iv) incubating PBMCs (Figure 6I) and isolated T cells (Figure 6J) from patients with CLL (n = 3) following treatment with 200 nM EC-7072 for 24 hours. T-cell death and apoptosis were assessed by DiOC6(3)/PI staining to obtain percentages of viable [DiOC6(3)^+] cells and the mean percentages of apoptotic [DiOC6(3)^low PI^-] and dead [PI^+] cells. […]

[2] = system: primary fibroblasts from healthy donors; assay: Cell death of primary fibroblasts by PI staining; type: cell-based, human; details: 200 nM, 24 hours; n = 4
Procedure: Effectiveness of EC-7072 against different B-cell malignancies was assessed by; • (i) incubating primary fibroblasts from healthy donors (n = 4) and HK-2 cells from healthy human adult kidney (n = 3) following treatment with MTA (200 nM) or EC-7072 (200 nM) for 24 hours. Cell death was evaluated by PI staining to obtain the percentages corresponding to the [PI^+] subset (Figure 5A) and the mean percentage of [PI^+] cells (Figure 5B); • (ii) treating MEC-1, GRANTA-519, Z-138, JVM-2, CA-46, Ramos, Raji and U266 cell lines (n = 3) following treatment with EC-7072 (500 nM) followed by incubation for 24 hours. Cell viability was assessed by DiOC6(3)/PI staining and normalized to control (DMSO) condition to obtain mean percentage of viable [DiOC6(3)^+] cells (Figure 5C).

CO[C@@H]([C@@H]1Cc2cc3cc(O[C@H]4C[C@@H](O[C@H]5C[C@@H](O)[C@H](O)[C@@H](C)O5)[C@H](O)[C@@H](C)O4)c(C)c(O)c3c(O)c2C(=O)[C@H]1O[C@H]1C[C@@H](O[C@H]2C[C@@H](O[C@H]3C[C@](C)(O)[C@H](O)[C@@H](C)O3)[C@@H](O)[C@@H](C)O2)[C@H](O)[C@@H](C)O1)[C@@H](O)C(C)=O [EC-7072, mithramycin SK]
expression of genes required for functional BCR signaling (CD79B, SYK, LYN, PIK3CD, PLCG2, CARD11) ([1]; 200 nM, RNA-seq, validated by qPCR (n = 6)): broad downregulation
gene expression of BCL2 ([1]; 200 nM, isolated CLL cells (n = 6)): significantly downregulated
expression of BCL2 upon BCR activation ([1]; EC-7072 200 nM in combination with α-IgM (10 µg/mL), n = 4): restore the expression of BCL2 to basal levels
viability of primary human fibroblasts (PI^+ cells) [2]: did not markedly affect the viability
